Experimental data reported in the supplement of paper PMC10307832.

Experiments:
Test in all cases: relative viability (nuclei count vs DMSO), 5 days (fraction); higher = more cells survive
Crenolanib + Bortezomib = compound: CC1(COc2ccc3c(c2)ncn3-c2ccc3cccc(N4CCC(N)CC4)c3n2)COC1 [Crenolanib] + CC(C)C[C@H](NC(=O)[C@H](Cc1ccccc1)NC(=O)c1cnccn1)B(O)O [Bortezomib] (partner 0.002 µM)
In short: (§1)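 Relative viability was taken as the ratio of nuclei in treated wells to nuclei in vehicle wells. Lung cancer cell lines in 1536-well plates received compounds by pin tool one day after seeding, either one drug alone or a fixed anchor-drug dose plus five library-drug doses (not always all listed) in √10 steps. Nuclei were counted on 4× images after 5 days of treatment, and values are medians of duplicate plates.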

Tivantinib + AZD7762 = compound: O=C1NC(=O)[C@@H](c2cn3c4c(cccc24)CCC3)[C@@H]1c1c[nH]c2ccccc12 [Tivantinib] + NC(=O)Nc1cc(-c2cccc(F)c2)sc1C(=O)N[C@H]1CCCNC1 [AZD7762] (partner 0.2 µM)
In short: as §1

Tivantinib + Phenformin = compound: O=C1NC(=O)[C@@H](c2cn3c4c(cccc24)CCC3)[C@@H]1c1c[nH]c2ccccc12 [Tivantinib] + N=C(N)NC(=N)NCCc1ccccc1 [Phenformin] (partner 250 µM)
In short: as §1

Crenolanib + Vorinostat = compound: CC1(COc2ccc3c(c2)ncn3-c2ccc3cccc(N4CCC(N)CC4)c3n2)COC1 [Crenolanib] + O=C(CCCCCCC(=O)Nc1ccccc1)NO [Vorinostat] (partner 1 µM)
In short: as §1

Cell Line	relative viability (Crenolanib + Bortezomib; first compound 0.01 µM)	relative viability (Crenolanib + Bortezomib; first compound 0.03162 µM)	relative viability (Crenolanib + Bortezomib; first compound 0.1 µM)	relative viability (Crenolanib + Bortezomib; first compound 0.3162 µM)	relative viability (Crenolanib + Bortezomib; first compound 1 µM)	relative viability (Tivantinib + AZD7762; first compound 0.01 µM)	relative viability (Tivantinib + AZD7762; first compound 0.03162 µM)	relative viability (Tivantinib + AZD7762; first compound 0.1 µM)	relative viability (Tivantinib + AZD7762; first compound 0.3162 µM)	relative viability (Tivantinib + Phenformin; first compound 0.01 µM)	relative viability (Tivantinib + Phenformin; first compound 0.03162 µM)	relative viability (Tivantinib + Phenformin; first compound 0.1 µM)	relative viability (Tivantinib + Phenformin; first compound 0.3162 µM)	relative viability (Crenolanib + Vorinostat; first compound 0.01 µM)	relative viability (Crenolanib + Vorinostat; first compound 0.03162 µM)	relative viability (Crenolanib + Vorinostat; first compound 0.1 µM)	relative viability (Crenolanib + Vorinostat; first compound 0.3162 µM)	relative viability (Crenolanib + Vorinostat; first compound 1 µM)
HCC-78	0.309	0.454	0.638	0.499	0.438	0.688	0.786	0.651	0.425	0.682	0.711	0.689	0.533	0.441	0.424	0.493	0.433	0.386
HOP-62	1.01	0.488	0.743	0.317	0.309	0.503	0.62	0.515	0.667	0.708	0.524	0.65	0.821	0.653	0.542	0.635	0.829	0.552
NCI-H1623										0.574	0.547	0.49						
NCI-H2405	0.998	0.964	0.921	1.05	0.976	0.877	0.806	0.753	0.828	0.437	0.38	0.367	0.473	1.03		0.93	1.12	0.706
PC-3 [JPC-3]	0.814	0.889	0.779	0.831	0.749	0.781	0.823	0.884	0.601	0.459	0.494	0.506	0.355	0.75		0.824	0.7	0.582
NCI-H1666	0.9	0.711	0.858	1.01	0.667	0.904	0.841	0.835	0.705	0.566	0.576	0.531	0.552	1.1	1.01	0.991	1.09	1.06
HCC-15	1.15	1.01	0.909	1.05	0.956	1.27	1.34	1.15	1.29	0.476	0.411	0.478	0.479	0.954	0.888	0.844	0.877	0.775
NCI-H1651	0.982	0.894	0.904	0.926	0.913	0.452	0.404	0.437	0.353	0.348	0.287	0.318	0.376	0.604	0.488	0.583	0.51	0.538
NCI-H1395						0.406	0.405	0.395	0.371	0.468	0.513	0.45	0.437	0.766	0.601	0.96	0.689	0.695
EPLC-272H		0.766	0.747	0.887	0.874	0.278	0.284	0.21	0.268	0.248	0.294	0.296	0.0595	0.435	0.622	0.469	0.308	0.584
LXF-289	1.07	0.996	0.935	1	0.95	1.14	1.13	1.07	1.08	0.536	0.542	0.528	0.504	0.734	0.798	0.712	0.723	0.637
NCI-H1437	0.48	0.408	0.557	0.515	0.526	1.22	1.16	1.11	0.96	0.3	0.278	0.275	0.351	0.843	0.868	0.781	0.857	0.628
NCI-H1650	0.217	0.194	0.197	0.205	0.203					0.438	0.352	0.416	0.32	0.454	0.516	0.582	0.812	0.676
LK-2						0.447	0.214	0.288	0.363	0.44		0.314	0.339	0.326	0.259	0.273	0.354	0.311
NCI-H1563	0.926	0.901	0.897	0.865	0.829					0.581	0.636	0.631	0.63					
COR-L23	0.983	1.16	0.921	1.13	1.03					0.453	0.416	0.415	0.508	0.553	0.559	0.394	0.5	0.476
SW 900						0.682	0.464	0.5	0.496	0.693	0.527	0.573	0.474	0.548		0.428	0.574	0.435
NCI-H1648							0.61	0.767	0.479					0.599		0.293	0.466	0.433
A549										0.158	0.169	0.146	0.263					
NCI-H1703	0.419	0.231	0.218	0.207	0.181	0.159	0.152	0.114	0.124									

Cell Line	relative viability (Crenolanib + Bortezomib; first compound 0.01 µM)	relative viability (Crenolanib + Bortezomib; first compound 0.03162 µM)	relative viability (Crenolanib + Bortezomib; first compound 0.1 µM)	relative viability (Crenolanib + Bortezomib; first compound 0.3162 µM)	relative viability (Crenolanib + Bortezomib; first compound 1 µM)	relative viability (Tivantinib + AZD7762; first compound 0.01 µM)	relative viability (Tivantinib + AZD7762; first compound 0.03162 µM)	relative viability (Tivantinib + AZD7762; first compound 0.1 µM)	relative viability (Tivantinib + AZD7762; first compound 0.3162 µM)	relative viability (Tivantinib + Phenformin; first compound 0.01 µM)	relative viability (Tivantinib + Phenformin; first compound 0.03162 µM)	relative viability (Tivantinib + Phenformin; first compound 0.1 µM)	relative viability (Tivantinib + Phenformin; first compound 0.3162 µM)	relative viability (Crenolanib + Vorinostat; first compound 0.01 µM)	relative viability (Crenolanib + Vorinostat; first compound 0.03162 µM)	relative viability (Crenolanib + Vorinostat; first compound 0.1 µM)	relative viability (Crenolanib + Vorinostat; first compound 0.3162 µM)	relative viability (Crenolanib + Vorinostat; first compound 1 µM)
SW 1573	1.04	1.15	0.996	1.29	1.15					0.419	0.357	0.392	0.263	0.961	0.624	0.995	0.929	0.606
COR-L 105	0.95	0.863	0.646	0.825	0.676					0.523	0.366	0.401	0.369	0.842	0.957	0.904	1.08	0.922
Calu-6	1.06	0.97	1.03	1.1	1.02													
NCI-H2009	1.14	1.02	1.01	0.959	0.813					0.492	0.503	0.481	0.528	0.847	0.73	0.692	0.697	0.7
SK-LU-1	1.42	1.11	0.937	1.33	1					0.536	0.539	0.497	0.601	0.735	0.863	0.603	0.811	0.795
NCI-H358						0.443	0.576	0.497	0.279	0.339	0.327	0.282	0.189	0.784	0.71	0.633	0.729	0.611
NCI-H1944						0.513	0.511	0.472	0.426	0.189	0.179	0.192	0.228	0.586	0.591	0.491	0.693	0.4
NCI-H2342						0.505	0.515	0.432	0.39	0.579	0.671	0.568	0.495	0.729	0.682	0.688	0.788	0.691
EBC-1	0.798	0.581	0.573	0.559	0.462													
NCI-H522						0.829	0.812	0.864	0.612	0.604	0.646	0.636	0.644	1	0.876	0.855	0.92	0.8
SK-MES-1										0.676	0.672	0.619	0.673	1.15	1.16	0.954	1.1	1.05
NCI-H2170						0.878	0.822	0.794		0.429	0.437	0.401		0.793	0.928	0.697	0.985	0.793
NCI-H520	0.481	0.528	0.824	0.779	0.628					0.669	0.393	0.536	0.547	0.703	0.641	0.733	0.765	0.652
NCI-H661	0.807	0.853	0.851	0.831	0.745					0.288	0.281	0.404	0.271	0.772	0.778	0.813	0.845	0.846
NCI-H1793						0.355	0.645	0.412	0.378	0.347	0.388	0.371	0.213	0.8	0.741	0.698	0.863	0.698
NCI-H1299	1.04	1.02	0.968	1.04	1.03													
NCI-H2228	1.11	0.922	0.776	1.01	0.887						0.296	0.283	0.223	0.721	0.768	0.633	0.687	0.871
IA-LM	0.806	0.771	0.726	0.949	0.978									1.06	0.971	0.956	0.905	0.678
NCI-H1792	1.03	0.882	0.879	1.13	0.94	0.653		0.644	0.589	0.396	0.567	0.297	0.492					
NCI-H2023	1.03	0.95	0.934	1.14	0.578					0.484	0.41	0.422	0.444	0.705	0.531	0.617	0.813	0.634
